# From ChEMBL document CHEMBL5665443, “Enzyme Inhibitor Single Concentration assay results for EUbOPEN Chemogenomics Library” (2024)
# Columns and labels:
# [1] = biological target: Methyl-CpG-binding domain protein 4 (Homo sapiens) (UniProt O95243);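 further: MBD4 activity read as fluorescence at 594 nm from cleavage and release of a quenched duplex DNA oligonucleotide, with APE1 coupled to incise the strand and raise turnover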
# Description: Inhibition of MBD4 by quantifying inhibition of MBD4-mediated cleavage and dissociation of quenched duplex DNA oligonucleotides, measured as fluorescence at 594 nm. To generate a functional strand incision and increase turn-over this assay is coupled to APE1.
# [2] = biological target: T1, Adenine DNA glycosylase (Homo sapiens) (UniProt Q9UIF7); details: Hit No;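 further: human MUTYH activity read as 594 nm fluorescence from cleavage and release of a quenched DNA duplex, coupled with APE1 for strand incision, lower signal meaning inhibition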
# T1 sequence (whole entry): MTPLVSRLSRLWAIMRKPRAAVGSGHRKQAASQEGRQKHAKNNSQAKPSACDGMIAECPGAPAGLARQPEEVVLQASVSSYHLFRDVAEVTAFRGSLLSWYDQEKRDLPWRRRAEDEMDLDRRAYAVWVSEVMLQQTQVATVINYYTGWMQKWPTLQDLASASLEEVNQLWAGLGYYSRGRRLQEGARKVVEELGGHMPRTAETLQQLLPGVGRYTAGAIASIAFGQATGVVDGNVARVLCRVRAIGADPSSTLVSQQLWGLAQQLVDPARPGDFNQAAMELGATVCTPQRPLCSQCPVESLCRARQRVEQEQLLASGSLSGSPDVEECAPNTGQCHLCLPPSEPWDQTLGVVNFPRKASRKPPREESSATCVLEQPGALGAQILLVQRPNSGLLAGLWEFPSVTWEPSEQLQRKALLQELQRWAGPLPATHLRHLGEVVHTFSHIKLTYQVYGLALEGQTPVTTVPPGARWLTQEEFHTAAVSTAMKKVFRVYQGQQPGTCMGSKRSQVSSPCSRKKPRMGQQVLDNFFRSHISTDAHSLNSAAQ
# Description: Inhibition of MUTYH by quantifying inhibition of MUTYH-mediated cleavage and dissociation of quenched duplex DNA oligonucleotides, measured as fluorescence at 594 nm. To generate a functional strand incision and increase turn-over this assay is coupled to APE1.
# [3] = biological target: Endonuclease 8-like 1 (Homo sapiens) (UniProt Q96FI4); details: Hit No;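 further: fluorescence at 594 nm from quenched duplex DNA oligonucleotides released by NEIL1 cleavage and strand separation, reported as reduction of this enzyme activity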
# Sequence of Endonuclease 8-like 1 (Homo sapiens) (Q96FI4 whole entry): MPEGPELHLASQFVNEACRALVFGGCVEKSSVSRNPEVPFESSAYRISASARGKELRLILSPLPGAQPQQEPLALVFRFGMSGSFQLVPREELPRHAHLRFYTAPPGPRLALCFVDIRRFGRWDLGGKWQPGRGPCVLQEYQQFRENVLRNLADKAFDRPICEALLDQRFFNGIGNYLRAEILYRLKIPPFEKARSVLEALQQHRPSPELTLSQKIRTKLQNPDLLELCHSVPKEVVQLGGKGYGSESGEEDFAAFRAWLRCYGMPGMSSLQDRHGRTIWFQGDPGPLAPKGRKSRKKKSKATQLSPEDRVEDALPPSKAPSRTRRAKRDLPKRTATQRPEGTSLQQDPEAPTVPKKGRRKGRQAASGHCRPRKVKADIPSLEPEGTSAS
# Description: Inhibition of NEIL1 by quantifying inhibition of NEIL1-mediated cleavage and dissociation of quenched duplex DNA oligonucleotides, measured as fluorescence at 594 nm.
# [4] = biological target: T2, Endonuclease III-like protein 1 (Homo sapiens) (UniProt P78549); details: Hit No;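 further: enzyme assay tracking NTHL1 cutting and release of a quenched double-stranded DNA oligo substrate, read as fluorescence at 594 nm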
# T2 sequence (whole entry): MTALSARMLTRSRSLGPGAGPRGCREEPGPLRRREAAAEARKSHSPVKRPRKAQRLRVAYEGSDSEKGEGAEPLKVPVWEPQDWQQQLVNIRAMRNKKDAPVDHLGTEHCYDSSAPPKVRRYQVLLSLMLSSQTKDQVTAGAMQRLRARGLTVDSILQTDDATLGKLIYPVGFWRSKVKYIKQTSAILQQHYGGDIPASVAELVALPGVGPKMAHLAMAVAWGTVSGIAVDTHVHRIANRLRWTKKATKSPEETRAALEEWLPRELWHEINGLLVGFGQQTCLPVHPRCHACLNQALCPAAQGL
# Description: Inhibition of NTHL1 by quantifying inhibition of NTHL1-mediated cleavage and dissociation of quenched duplex DNA oligonucleotides, measured as fluorescence at 594 nm.
# [5] = biological target: N-glycosylase/DNA lyase (Homo sapiens) (UniProt O15527); details: Hit No;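 further: OGG1 cleavage of a quenched duplex DNA oligonucleotide, coupled to APE1 for strand incision, read as fluorescence at 594 nm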
# Sequence of N-glycosylase/DNA lyase (Homo sapiens) (O15527 whole entry): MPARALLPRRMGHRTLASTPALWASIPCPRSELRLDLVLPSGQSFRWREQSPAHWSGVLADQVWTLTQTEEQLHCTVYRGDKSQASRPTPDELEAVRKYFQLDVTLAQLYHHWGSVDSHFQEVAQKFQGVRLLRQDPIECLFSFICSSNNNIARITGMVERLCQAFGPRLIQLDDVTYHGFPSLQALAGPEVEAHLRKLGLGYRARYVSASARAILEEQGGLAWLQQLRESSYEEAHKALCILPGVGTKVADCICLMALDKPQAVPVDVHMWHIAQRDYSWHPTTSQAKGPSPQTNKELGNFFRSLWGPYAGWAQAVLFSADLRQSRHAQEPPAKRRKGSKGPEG
# Description: Inhibition of OGG1 by quantifying inhibition of OGG1-mediated cleavage and dissociation of quenched duplex DNA oligonucleotides, measured as fluorescence at 594 nm. To generate a functional strand incision and increase turn-over this assay is coupled to APE1.
# [6] = biological target: T3, Single-strand selective monofunctional uracil DNA glycosylase (Homo sapiens) (UniProt Q53HV7); details: Hit No;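 further: enzymatic SMUG1 assay coupled with APE1, reading fluorescence at 594 nm released when a quenched double-stranded DNA oligonucleotide substrate is cleaved and separated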
# T3 sequence (whole entry): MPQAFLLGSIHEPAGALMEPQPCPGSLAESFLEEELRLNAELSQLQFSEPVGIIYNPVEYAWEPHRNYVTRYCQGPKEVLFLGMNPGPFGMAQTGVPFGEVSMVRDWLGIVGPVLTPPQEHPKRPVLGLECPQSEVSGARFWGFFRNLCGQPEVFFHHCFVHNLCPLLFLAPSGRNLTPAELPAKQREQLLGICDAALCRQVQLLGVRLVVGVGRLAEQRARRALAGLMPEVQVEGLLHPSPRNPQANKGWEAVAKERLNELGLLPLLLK
# Description: Inhibition of SMUG1 by quantifying inhibition of SMUG1-mediated cleavage and dissociation of quenched duplex DNA oligonucleotides, measured as fluorescence at 594 nm. To generate a functional strand incision and increase turn-over this assay is coupled to APE1.
# [7] = biological target: G/T mismatch-specific thymine DNA glycosylase (Homo sapiens) (UniProt Q13569);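 further: human TDG cleavage of quenched duplex DNA oligonucleotides coupled to APE1, strand release read as fluorescence at 594 nm, inhibition of TDG activity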
# Sequence of G/T mismatch-specific thymine DNA glycosylase (Homo sapiens) (Q13569 whole entry): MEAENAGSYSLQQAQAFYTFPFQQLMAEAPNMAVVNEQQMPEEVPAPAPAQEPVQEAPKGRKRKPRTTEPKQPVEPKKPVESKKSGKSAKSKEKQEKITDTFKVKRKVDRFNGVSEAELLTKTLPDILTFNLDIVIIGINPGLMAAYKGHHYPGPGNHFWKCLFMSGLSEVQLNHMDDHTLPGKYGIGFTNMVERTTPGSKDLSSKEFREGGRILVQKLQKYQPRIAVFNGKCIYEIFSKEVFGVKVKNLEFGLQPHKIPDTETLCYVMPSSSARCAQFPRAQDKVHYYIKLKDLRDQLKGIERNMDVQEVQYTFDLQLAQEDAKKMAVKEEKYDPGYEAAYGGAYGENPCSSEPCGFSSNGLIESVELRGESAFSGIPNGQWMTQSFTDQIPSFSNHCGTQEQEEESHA
# Description: Inhibition of TDG by quantifying inhibition of TDG-mediated cleavage and dissociation of quenched duplex DNA oligonucleotides, measured as fluorescence at 594 nm. To generate a functional strand incision and increase turn-over this assay is coupled to APE1.
# [8] = biological target: Uracil-DNA glycosylase (Homo sapiens) (UniProt P13051); details: Hit No;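 further: UNG excision on a quenched double-stranded DNA oligo probe, with APE1 added for strand incision and turnover, read as fluorescence at 594 nm as strands separate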
# Sequence of Uracil-DNA glycosylase (Homo sapiens) (P13051 whole entry): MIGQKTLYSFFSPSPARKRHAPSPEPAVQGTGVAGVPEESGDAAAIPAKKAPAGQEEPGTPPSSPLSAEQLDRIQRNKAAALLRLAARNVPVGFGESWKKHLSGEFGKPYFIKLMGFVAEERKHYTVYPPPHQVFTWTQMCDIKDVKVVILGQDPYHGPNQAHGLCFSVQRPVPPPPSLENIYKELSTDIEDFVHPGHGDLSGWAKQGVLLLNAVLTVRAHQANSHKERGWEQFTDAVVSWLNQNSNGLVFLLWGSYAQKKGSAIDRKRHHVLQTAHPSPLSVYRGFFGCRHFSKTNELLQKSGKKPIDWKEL
# Description: Inhibition of UNG by quantifying inhibition of UNG-mediated cleavage and dissociation of quenched duplex DNA oligonucleotides, measured as fluorescence at 594 nm. To generate a functional strand incision and increase turn-over this assay is coupled to APE1.
# [9] = biological target: T4, Endonuclease 8-like 2 (Homo sapiens) (UniProt Q969S2); details: Hit No;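 further: fluorescence at 594 nm reports NEIL2 cutting and release of a quenched double-stranded DNA oligo substrate, reduced signal read as inhibition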
# T4 sequence (whole entry): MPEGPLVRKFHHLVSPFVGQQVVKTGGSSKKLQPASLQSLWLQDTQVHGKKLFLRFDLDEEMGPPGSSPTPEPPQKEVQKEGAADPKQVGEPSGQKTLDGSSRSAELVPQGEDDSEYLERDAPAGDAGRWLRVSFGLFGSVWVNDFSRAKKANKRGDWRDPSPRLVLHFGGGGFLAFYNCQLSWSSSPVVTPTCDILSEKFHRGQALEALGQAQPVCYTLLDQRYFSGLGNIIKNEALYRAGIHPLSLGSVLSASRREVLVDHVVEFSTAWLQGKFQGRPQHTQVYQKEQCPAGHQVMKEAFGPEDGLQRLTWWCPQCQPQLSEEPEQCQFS
# Description: Inhibition of NEIL2 by quantifying inhibition of NEIL2-mediated cleavage and dissociation of quenched duplex DNA oligonucleotides, measured as fluorescence at 594 nm.
# [10] = Compound Concentration 10.0 uM, Hit Yes
# [11] = Compound Concentration 10.0 uM, Hit No
# [12] = Compound Concentration 1.0 uM, Hit No
# Sequence of Methyl-CpG-binding domain protein 4 (Homo sapiens) (O95243 whole entry, the tested form may be a part): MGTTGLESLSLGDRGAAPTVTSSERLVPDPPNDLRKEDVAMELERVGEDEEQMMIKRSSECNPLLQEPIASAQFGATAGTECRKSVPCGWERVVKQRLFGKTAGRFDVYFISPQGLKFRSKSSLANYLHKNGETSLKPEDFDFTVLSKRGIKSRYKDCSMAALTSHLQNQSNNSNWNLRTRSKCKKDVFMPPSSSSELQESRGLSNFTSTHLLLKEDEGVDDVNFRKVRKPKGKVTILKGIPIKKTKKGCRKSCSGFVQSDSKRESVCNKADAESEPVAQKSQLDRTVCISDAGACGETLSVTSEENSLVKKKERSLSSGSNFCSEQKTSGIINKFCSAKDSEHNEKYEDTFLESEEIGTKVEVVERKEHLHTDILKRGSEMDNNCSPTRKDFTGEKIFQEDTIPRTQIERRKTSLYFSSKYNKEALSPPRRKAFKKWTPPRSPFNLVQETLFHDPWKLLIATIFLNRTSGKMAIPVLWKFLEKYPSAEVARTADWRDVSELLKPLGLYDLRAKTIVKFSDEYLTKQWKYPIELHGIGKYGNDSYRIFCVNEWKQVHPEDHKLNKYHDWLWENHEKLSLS
Compound,inhibition ([2]; Compound Concentration 10.0 uM) [%],inhibition ([3]; Compound Concentration 10.0 uM) [%],inhibition ([4]; Compound Concentration 10.0 uM) [%],inhibition ([5]; Compound Concentration 10.0 uM) [%],inhibition ([6]; Compound Concentration 10.0 uM) [%],inhibition ([8]; Compound Concentration 10.0 uM) [%],"inhibition [1, 11] [%]","inhibition [7, 11] [%]",inhibition ([9]; Compound Concentration 10.0 uM) [%],further results
CN(C)CCN(Cc1ccc(-c2ccc(CNCCc3ccccc3)cc2)cc1)C(=O)CCC1CCCC1,93.4,4.6,8,3.9,-6.4,1.96,,,,"inhibition [1, 10]: 78.7%; inhibition [7, 10]: 80.3%"
CCn1c(=O)c(C)cn(Cc2nnc(-c3ccc(F)c(O)c3F)s2)c1=O,-9.23,,2,-4.39,3.85,-4.5,53.9,48,,
CN(C)C(=O)Cn1cc(-c2ccc(-c3nnc4ccccn34)cc2)cn1,,,,,,,,,,"inhibition [1, 12]: 7.42%; inhibition ([2]; Compound Concentration 1.0 uM): 27.4%; inhibition ([3]; Compound Concentration 1.0 uM): -1.84%; inhibition ([4]; Compound Concentration 1.0 uM): -9.68%; inhibition ([5]; Compound Concentration 1.0 uM): 3.29%; inhibition ([6]; Compound Concentration 1.0 uM): 22.7%; inhibition ([7]; Compound Concentration 1.0 uM, Hit Yes): 100%; inhibition ([8]; Compound Concentration 1.0 uM): 2.39%"
CC(C)C(=O)Nc1n[nH]c2cc(-c3cccc(NS(=O)(=O)C4CC4)c3)ccc12,2.74,4.76,-0.61,,13.9,-0.0214,-3.9,40.3,0.236,
COC[C@H](NC(=O)c1ccn(S(C)(=O)=O)c1)C(=O)Nc1nc(-c2cccc(-c3ccn(C)n3)c2)cs1,,,,,,,,,,"inhibition [1, 12]: 43.1%; inhibition ([2]; Compound Concentration 1.0 uM): 2.68%; inhibition ([4]; Compound Concentration 1.0 uM): -3.92%; inhibition ([5]; Compound Concentration 1.0 uM): -7.59%; inhibition ([6]; Compound Concentration 1.0 uM): 16.9%; inhibition [7, 12]: 48.2%; inhibition ([8]; Compound Concentration 1.0 uM): 4.22%"
CN(C)C(=O)N1CC[C@H](NC2=Nc3cc(F)ccc3N(CC(F)F)c3ccc(Cl)cc32)C1,36.6,-0.787,-2.7,-5.59,19.6,6.61,-7.39,38.4,,
Cc1cc(F)c(C(=O)Nc2cccc(-c3nncn3C(C)C)n2)cc1-n1cnc(C2CC2)c1,,,,,,,,,,"inhibition [1, 12]: 18.6%; inhibition ([2]; Compound Concentration 1.0 uM): 8.56%; inhibition ([3]; Compound Concentration 1.0 uM): 8.59%; inhibition ([9]; Compound Concentration 1.0 uM): 2.93%; inhibition ([4]; Compound Concentration 1.0 uM): -4.79%; inhibition ([6]; Compound Concentration 1.0 uM): 12.2%; inhibition [7, 12]: 44.4%; inhibition ([8]; Compound Concentration 1.0 uM): -0.67%"
Cn1cc(-n2cnc3c(NCc4nc5cc(Cl)c(Cl)cc5[nH]4)nc(N4CCOCC4)nc32)cn1,9.84,6.21,-7.58,,25.7,3.73,6.19,40.7,1.04,
CC(C)(O)c1ccc(N2Cc3c(ccnc3-c3ccc(F)cc3OCC(F)(F)F)C2=O)cc1,,,,,,,,,,"inhibition [1, 12]: 55.3%; inhibition ([2]; Compound Concentration 1.0 uM): -6.44%; inhibition ([3]; Compound Concentration 1.0 uM): -3.02%; inhibition ([4]; Compound Concentration 1.0 uM): -1.95%; inhibition ([5]; Compound Concentration 1.0 uM): -2.43%; inhibition ([6]; Compound Concentration 1.0 uM): 2.79%; inhibition [7, 12]: 51.2%; inhibition ([8]; Compound Concentration 1.0 uM): 3.14%"
CC(C)(C)c1ccc(C(=O)Nc2cn3cc(-n4ccnc4)ccc3n2)cc1,6.44,-0.391,-0.61,22.7,16.9,4.09,1.23,51.5,,
N[C@@]1(C(=O)O)CO[C@H]2[C@H](C(=O)O)[C@H]21,10.7,-2.51,24.5,,2.42,-8.59,10.3,9.39,-7.74,
CC(C)(C)NC[C@H](O)COc1nsnc1N1CCOCC1,2.84,-6.13,-8.34,-3.29,-0.808,,2.07,9.57,-5.47,
COc1ccc(OC(=O)N(CC(=O)O)Cc2ccc(OCCc3nc(-c4ccccc4)oc3C)cc2)cc1,29.2,,5.94,27,20.2,3.56,67.6,53.7,,
CC(C)(C)c1cc(NC(=O)Nc2ccc(-c3cn4c(n3)sc3cc(OCCN5CCOCC5)ccc34)cc2)no1,,,,,,,,,,"inhibition [1, 12]: 0.784%; inhibition ([2]; Compound Concentration 1.0 uM): 11.2%; inhibition ([3]; Compound Concentration 1.0 uM): 5.55%; inhibition ([9]; Compound Concentration 1.0 uM): 1.85%; inhibition ([4]; Compound Concentration 1.0 uM): -3.4%; inhibition ([6]; Compound Concentration 1.0 uM): 19.8%; inhibition [7, 12]: 37.3%; inhibition ([8]; Compound Concentration 1.0 uM): 1.47%"
O[C@H]1CC[C@H](Nc2ncc3nc(Nc4c(F)cc(F)cc4F)n([C@H]4CCOC4)c3n2)CC1,1.28,,1.48,6.26,20.8,2.17,-7.12,37.3,,
Cc1nc(NC(=O)N2CCC[C@H]2C(N)=O)sc1-c1ccnc(C(C)(C)C(F)(F)F)c1,6.32,,12.6,12.9,16.5,2.95,-5.03,38,,
O=C1N/C(=N/c2ccccc2F)S/C1=C\c1ccc(C(=O)O)cc1,3.09,-0.204,17.3,-2.53,-0.227,,-3.22,3.04,3.51,
Cn1cncc1[C@@](O)(COc1ccc(C#N)cc1-c1ccc(OC(F)(F)F)cc1)c1ccc(C#N)cc1,-9.72,,7.26,10.2,-1.81,-3.07,56,45.8,,
O=c1ccc2ccc(OCCCCN3CCN(c4cccc5sccc45)CC3)cc2[nH]1,3.6,6.47,4.86,-3.25,-9.19,,-1.94,-1.81,-1.98,
CN1C2CCCC1CC(Nc1ccccc1Br)C2 (stereo not drawn),6.82,-3.4,24.5,,-9,-6.41,11.1,-8.71,-3.41,
Cc1nccc(COC(=O)N2C[C@@H]3[C@@H](CNC(=O)c4ccc5[nH]nnc5c4)[C@@H]3C2)n1,10.4,,0.685,-5.03,19.9,1.28,55.9,59.6,,
CN(C)CCOc1ccc(-c2nc(-c3ccncc3)c(-c3ccc4c(c3)CC/C4=N\O)[nH]2)cc1,0.369,1.19,11.2,,-6.49,11.4,23.9,47.4,26.4,
Cc1cccc(CCN2CCC(C(=O)c3ccc(NS(C)(=O)=O)cc3)CC2)n1,-5.27,0.158,0.568,,-8.55,-5.19,-1.99,11.1,-4.17,
CNc1ncc2cc(-c3ccc(-c4ncccc4F)cc3Cl)c(=O)n(C[C@H]3OC[C@H](N)CO3)c2n1,10.6,0.666,-2,,24.9,9.96,9.96,48.4,-5.96,
COc1ccc(NC(=O)[C@@H]2C[C@H](C)CC[C@H]2C(C)C)cc1,-7.01,-2.36,15.4,,11.3,-3.01,1.36,-1.07,-3.15,
